Active and inactive are the calls of the source. The rule behind the calls is not given here.
What was measured:
TMD8 [1] = assay: Induction of cell cycle arrest in human TMD8 cells assessed as accumulation of cells at S phase at 300 nM incubated for 48 hrs by PI staining based flow cytometric analysis (reference value: 37.42 %); type: functional
Cytochrome P450 3A4 [2] = molecular target: T1, Cytochrome P450 3A4 (Homo sapiens, UniProt P08684); assay: Inhibition of CYP3A4M in human liver microsomes using midazolam as substrate incubated for 10 mins in presence of NADPH by LC-MS/MS analysis; type: ADME
[3] = Toxicity in SFP CD-1 mouse assessed as change in behavior at 10 to 1280 mg/kg, po administered for 7 days; type: organism-based; settings: in vivo, 168 h, dose 10-1280 mg/kg, time 7 day
[4] = Cmax in CB-17 SCID mouse xenografted with human TMD8 cells at 7.5 mg/kg, po bid administered for 21 days; type: ADME, organism-based; parameters: route oral, dose 7.5 mg/kg, time 21 day; settings: in vivo
TMD8 [5] = assay: Induction of apoptosis in human TMD8 cells at 30 nM incubated for 72 hrs by Annexin V-FITC/PI staining based flow cytometric analysis (reference value: 13.4 %); type: functional
TMD8 [6] = assay: Antitumor activity against human TMD8 cells xenografted in CB-17 SCID nude mouse assessed as tumor growth inhibition at 3.75 mg/kg, po bid administered for 21 days; type: functional; settings: 504 h, time 21 day, read-out: TGI
TMD8 [7] = assay: Antitumor activity against human TMD8 cells xenografted in CB-17 SCID nude mouse assessed as tumor growth inhibition at 7.5 mg/kg, po bid administered for 21 days; type: functional; settings: 504 h, time 21 day, read-out: TGI
TMD8 [8] = assay: Induction of cell cycle arrest in human TMD8 cells assessed as accumulation of cells at G2 phase at 3 nM incubated for 48 hrs by PI staining based flow cytometric analysis (reference value: 4.92 %); type: functional
[9] = AUC in Sprague-Dawley rat at 5 mg/kg, iv measured upto 24 hrs by LC/MS/MS analysis; type: ADME, organism-based; parameters: route intravenous, dose 5 mg/kg, time <=24; settings: in vivo
[10] = Receptor occupancy at BTK in spleen of ICR mouse at 15 mg/kg, po after 1 hr by ELISA; type: functional
TMD8 [11] = assay: Induction of cell cycle arrest in human TMD8 cells assessed as accumulation of cells at S phase at 3 nM incubated for 48 hrs by PI staining based flow cytometric analysis (reference value: 37.42 %); type: functional
[12] = molecular target: Tyrosine-protein kinase Lck (Homo sapiens, UniProt P06239); assay: Inhibition of LCK (unknown origin)
[13] = Receptor occupancy at BTK in PBMC of ICR mouse at 15 mg/kg, po after 1 hr by ELISA; type: functional
Raji = assay: Antiproliferative activity against human Raji cells assessed as reduction in cell viability incubated for 72 hrs by celltiter-glo assay
[14] = Volume of distribution in Sprague-Dawley rat at 5 mg/kg, iv measured upto 24 hrs by LC/MS/MS analysis; type: ADME, organism-based; settings: in vivo
TMD8 [15] = assay: Induction of apoptosis in human TMD8 cells at 3000 nM incubated for 72 hrs by Annexin V-FITC/PI staining based flow cytometric analysis (reference value: 13.4 %); type: functional
[16] = Toxicity in CB-17 SCID mouse xenografted with human TMD8 cells assessed as change in body weight at 3.75 to 15 mg/kg, po bid administered for 21 days; type: organism-based; settings: in vivo, 504 h, dose 3.75-15 mg/kg, time 21 day
TMD8 [17] = assay: Induction of cell cycle arrest in human TMD8 cells assessed as accumulation of cells at G2 phase at 300 nM incubated for 48 hrs by PI staining based flow cytometric analysis (reference value: 4.92 %); type: functional
Ramos = assay: Antiproliferative activity against human Ramos cells assessed as reduction in cell viability incubated for 72 hrs by celltiter-glo assay
TMD8 [18] = assay: Antitumor activity against human TMD8 cells xenografted in CB-17 SCID nude mouse assessed as tumor growth inhibition at 15 mg/kg, po bid administered for 21 days; type: functional; settings: 504 h, time 21 day, read-out: TGI
[19] = molecular target: Tyrosine-protein kinase Tec (Homo sapiens) (UniProt P42680); assay: Inhibition of TEC (unknown origin) at 1 uM relative to control
[20] = Half life in Sprague-Dawley rat at 5 mg/kg, iv measured upto 24 hrs by LC/MS/MS analysis; type: ADME, organism-based; settings: in vivo
[21] = molecular target: Tyrosine-protein kinase Blk (Homo sapiens, UniProt P51451); assay: Inhibition of BLK (unknown origin)
Cytochrome P450 1A2 = Cytochrome P450 1A2 (Homo sapiens, UniProt P05177); assay: Inhibition of CYP1A2 in human liver microsomes using phenacetin as substrate incubated for 10 mins in presence of NADPH by LC-MS/MS analysis; type: ADME
TMD8 [22] = assay: Induction of cell cycle arrest in human TMD8 cells assessed as accumulation of cells at S phase at 30 nM incubated for 48 hrs by PI staining based flow cytometric analysis (reference value: 37.42 %); type: functional
TMD8 [23] = assay: Induction of apoptosis in human TMD8 cells at 300 nM incubated for 72 hrs by Annexin V-FITC/PI staining based flow cytometric analysis (reference value: 13.4 %); type: functional
TMD8 [24] = assay: Induction of cell cycle arrest in human TMD8 cells assessed as accumulation of cells at G2 phase at 30 nM incubated for 48 hrs by PI staining based flow cytometric analysis (reference value: 4.92 %); type: functional
[25] = molecular target: Tyrosine-protein kinase BTK (Homo sapiens, UniProt Q06187, C481S); assay: Inhibition of BTK C481S mutant (unknown origin)
[26] = molecular target: Tyrosine-protein kinase BTK (Homo sapiens, UniProt Q06187); assay: Inhibition of BTK in human TMD8 cells assessed as reduction in PLCgamma2 phosphorylation at Tyr 1217 residue at 0 to 1000 nM after 4 hrs by Western blot analysis; type: cell-based; settings: dose 0-1000 nM
[27] = Cmax in ICR mouse at 15 mg/kg, po after 24 hrs; type: ADME, organism-based; parameters: route oral, time 24 hrs, dose 15 mg/kg; settings: in vivo
Cytochrome P450 3A4 [28] = molecular target: T1, Cytochrome P450 3A4; assay: Inhibition of CYP3A4T in human liver microsomes using midazolam as substrate incubated for 10 mins in presence of NADPH by LC-MS/MS analysis; type: ADME
[29] = molecular target: Tyrosine-protein kinase Tec (Homo sapiens, UniProt P42680); assay: Inhibition of TEC (unknown origin)
Pfeiffer = assay: Antiproliferative activity against human Pfeiffer cells assessed as reduction in cell viability incubated for 72 hrs by celltiter-glo assay
NAMALVA = assay: Antiproliferative activity against human NAMALWA cells assessed as reduction in cell viability incubated for 72 hrs by celltiter-glo assay
[30] = molecular target: Proto-oncogene tyrosine-protein kinase Src (Homo sapiens, UniProt P12931); assay: Inhibition of SRC (unknown origin)
[31] = Drug concentration in ICR mouse plasma at 15 mg/kg, po after 2 hrs; type: ADME, organism-based
[32] = Half life in Sprague-Dawley rat at 5 mg/kg, po measured upto 24 hrs by LC/MS/MS analysis; type: ADME, organism-based; settings: in vivo
[33] = Cmax in Sprague-Dawley rat at 5 mg/kg, po measured upto 24 hrs by LC/MS/MS analysis; type: ADME, organism-based; parameters: route oral, dose 5 mg/kg, time <=24; settings: in vivo
[34] = molecular target: Tyrosine-protein kinase Fyn (Homo sapiens, UniProt P06241); assay: Inhibition of FYN (unknown origin)

T1 sequence (P08684 whole entry): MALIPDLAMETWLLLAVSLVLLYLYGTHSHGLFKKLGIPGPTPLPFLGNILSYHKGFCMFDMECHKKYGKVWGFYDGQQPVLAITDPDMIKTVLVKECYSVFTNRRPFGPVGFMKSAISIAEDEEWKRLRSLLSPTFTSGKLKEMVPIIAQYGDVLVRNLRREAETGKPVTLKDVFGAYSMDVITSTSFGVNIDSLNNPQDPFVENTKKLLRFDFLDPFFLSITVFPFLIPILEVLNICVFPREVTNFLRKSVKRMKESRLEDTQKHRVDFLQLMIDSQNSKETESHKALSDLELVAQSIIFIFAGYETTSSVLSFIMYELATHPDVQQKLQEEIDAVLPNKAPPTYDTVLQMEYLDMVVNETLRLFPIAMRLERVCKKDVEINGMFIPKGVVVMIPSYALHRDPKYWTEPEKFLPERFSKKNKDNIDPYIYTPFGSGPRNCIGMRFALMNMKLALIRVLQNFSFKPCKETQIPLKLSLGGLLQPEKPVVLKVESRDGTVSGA
Chain of Tyrosine-protein kinase BTK (Homo sapiens, UniProt Q06187) (Q06187 whole entry): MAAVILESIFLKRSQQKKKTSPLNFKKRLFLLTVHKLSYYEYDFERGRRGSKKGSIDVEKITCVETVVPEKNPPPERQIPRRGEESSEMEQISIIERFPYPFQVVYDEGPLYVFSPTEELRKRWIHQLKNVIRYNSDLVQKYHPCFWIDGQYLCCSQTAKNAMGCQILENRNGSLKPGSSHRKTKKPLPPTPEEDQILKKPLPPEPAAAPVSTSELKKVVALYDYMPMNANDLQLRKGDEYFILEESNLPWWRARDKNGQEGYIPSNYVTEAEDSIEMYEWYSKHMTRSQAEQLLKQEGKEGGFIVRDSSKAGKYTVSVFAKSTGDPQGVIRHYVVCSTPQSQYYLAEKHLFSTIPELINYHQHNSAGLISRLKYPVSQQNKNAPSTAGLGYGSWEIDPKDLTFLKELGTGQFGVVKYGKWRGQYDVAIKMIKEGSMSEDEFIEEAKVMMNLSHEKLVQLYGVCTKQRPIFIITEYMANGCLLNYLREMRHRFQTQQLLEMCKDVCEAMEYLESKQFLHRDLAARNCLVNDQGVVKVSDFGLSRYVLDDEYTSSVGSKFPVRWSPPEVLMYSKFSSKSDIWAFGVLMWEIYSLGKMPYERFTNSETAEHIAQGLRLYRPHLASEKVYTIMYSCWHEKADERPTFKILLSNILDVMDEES
Chain of Tyrosine-protein kinase Tec (P42680 whole entry): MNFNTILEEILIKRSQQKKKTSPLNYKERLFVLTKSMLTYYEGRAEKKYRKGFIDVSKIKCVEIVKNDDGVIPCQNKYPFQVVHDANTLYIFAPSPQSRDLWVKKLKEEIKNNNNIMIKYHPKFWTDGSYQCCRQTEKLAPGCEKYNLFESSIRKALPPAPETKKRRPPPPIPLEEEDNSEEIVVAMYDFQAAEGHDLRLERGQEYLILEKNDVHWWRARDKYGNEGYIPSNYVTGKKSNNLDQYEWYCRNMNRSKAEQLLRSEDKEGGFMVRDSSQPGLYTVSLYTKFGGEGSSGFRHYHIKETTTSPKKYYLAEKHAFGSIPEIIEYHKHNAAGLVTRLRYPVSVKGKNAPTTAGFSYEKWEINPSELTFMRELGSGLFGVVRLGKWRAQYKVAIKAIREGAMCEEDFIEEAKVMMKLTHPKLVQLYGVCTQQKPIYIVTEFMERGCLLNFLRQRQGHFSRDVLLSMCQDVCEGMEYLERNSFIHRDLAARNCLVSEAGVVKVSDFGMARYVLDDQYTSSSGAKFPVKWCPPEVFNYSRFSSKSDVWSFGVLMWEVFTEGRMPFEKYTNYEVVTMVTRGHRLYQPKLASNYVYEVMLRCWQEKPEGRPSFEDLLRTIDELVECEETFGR
Chain of Tyrosine-protein kinase Tec (Homo sapiens) (P42680 whole entry): as above
Chain of Cytochrome P450 1A2 (P05177 whole entry): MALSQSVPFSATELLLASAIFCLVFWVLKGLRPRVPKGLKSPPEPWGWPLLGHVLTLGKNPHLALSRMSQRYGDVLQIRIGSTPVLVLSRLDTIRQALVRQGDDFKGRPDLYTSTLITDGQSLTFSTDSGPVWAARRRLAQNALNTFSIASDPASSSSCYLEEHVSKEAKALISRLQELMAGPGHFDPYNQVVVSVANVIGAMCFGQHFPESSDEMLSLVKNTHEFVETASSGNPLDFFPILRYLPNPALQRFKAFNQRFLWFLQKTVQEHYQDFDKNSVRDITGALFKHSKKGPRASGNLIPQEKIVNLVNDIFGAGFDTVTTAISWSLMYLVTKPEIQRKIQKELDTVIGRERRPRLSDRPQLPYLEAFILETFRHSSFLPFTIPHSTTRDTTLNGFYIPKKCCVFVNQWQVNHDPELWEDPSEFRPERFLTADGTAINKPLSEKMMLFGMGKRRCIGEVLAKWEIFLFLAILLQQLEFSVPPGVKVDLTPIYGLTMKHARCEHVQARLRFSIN
Chain of Tyrosine-protein kinase BTK (Homo sapiens, UniProt Q06187, C481S) (Q06187 2-659 C481S limits assumed): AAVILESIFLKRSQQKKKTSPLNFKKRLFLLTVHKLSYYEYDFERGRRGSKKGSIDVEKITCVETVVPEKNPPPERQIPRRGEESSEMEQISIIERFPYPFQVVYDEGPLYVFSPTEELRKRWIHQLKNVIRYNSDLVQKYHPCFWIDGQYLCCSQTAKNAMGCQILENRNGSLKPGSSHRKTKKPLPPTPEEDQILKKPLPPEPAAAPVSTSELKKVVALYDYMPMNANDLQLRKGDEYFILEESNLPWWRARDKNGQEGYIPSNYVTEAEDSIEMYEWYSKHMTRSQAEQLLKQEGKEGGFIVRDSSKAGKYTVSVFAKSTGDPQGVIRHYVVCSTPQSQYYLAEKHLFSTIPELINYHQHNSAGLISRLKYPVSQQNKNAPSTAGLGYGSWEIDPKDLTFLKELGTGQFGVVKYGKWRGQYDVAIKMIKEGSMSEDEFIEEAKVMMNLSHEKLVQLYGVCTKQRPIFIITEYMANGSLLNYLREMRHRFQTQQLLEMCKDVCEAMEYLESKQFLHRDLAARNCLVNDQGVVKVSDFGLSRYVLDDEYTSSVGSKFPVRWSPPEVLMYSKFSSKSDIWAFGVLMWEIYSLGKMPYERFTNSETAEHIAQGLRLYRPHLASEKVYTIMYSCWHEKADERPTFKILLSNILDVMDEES
Chain of Tyrosine-protein kinase Lck (P06239 whole entry): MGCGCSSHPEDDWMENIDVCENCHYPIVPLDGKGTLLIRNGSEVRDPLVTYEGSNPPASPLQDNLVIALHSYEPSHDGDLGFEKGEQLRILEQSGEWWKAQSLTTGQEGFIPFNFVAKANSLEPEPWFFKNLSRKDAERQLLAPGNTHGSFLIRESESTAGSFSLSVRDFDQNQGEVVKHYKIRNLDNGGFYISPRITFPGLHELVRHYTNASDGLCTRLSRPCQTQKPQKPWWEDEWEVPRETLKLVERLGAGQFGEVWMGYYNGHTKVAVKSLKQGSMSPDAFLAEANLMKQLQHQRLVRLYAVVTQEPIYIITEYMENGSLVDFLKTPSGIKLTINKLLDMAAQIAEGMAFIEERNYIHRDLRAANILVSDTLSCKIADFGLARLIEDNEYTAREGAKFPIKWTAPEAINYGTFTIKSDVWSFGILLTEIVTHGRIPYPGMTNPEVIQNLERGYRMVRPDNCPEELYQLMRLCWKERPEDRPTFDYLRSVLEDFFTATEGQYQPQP
Chain of Proto-oncogene tyrosine-protein kinase Src (P12931 2-536 limits assumed): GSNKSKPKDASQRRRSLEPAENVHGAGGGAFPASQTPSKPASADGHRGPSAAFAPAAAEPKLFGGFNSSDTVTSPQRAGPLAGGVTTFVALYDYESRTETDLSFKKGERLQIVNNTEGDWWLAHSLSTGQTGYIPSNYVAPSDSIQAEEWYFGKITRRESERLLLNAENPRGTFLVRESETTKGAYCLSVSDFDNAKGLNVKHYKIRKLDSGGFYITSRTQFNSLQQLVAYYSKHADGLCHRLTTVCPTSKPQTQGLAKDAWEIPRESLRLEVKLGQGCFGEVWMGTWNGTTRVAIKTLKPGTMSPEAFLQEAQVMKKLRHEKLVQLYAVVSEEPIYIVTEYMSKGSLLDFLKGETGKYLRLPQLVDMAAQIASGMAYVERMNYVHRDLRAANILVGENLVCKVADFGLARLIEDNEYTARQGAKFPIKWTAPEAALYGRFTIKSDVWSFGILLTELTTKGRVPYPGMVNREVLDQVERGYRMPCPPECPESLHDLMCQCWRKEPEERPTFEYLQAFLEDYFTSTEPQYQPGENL
Chain of Tyrosine-protein kinase Blk (P51451 whole entry): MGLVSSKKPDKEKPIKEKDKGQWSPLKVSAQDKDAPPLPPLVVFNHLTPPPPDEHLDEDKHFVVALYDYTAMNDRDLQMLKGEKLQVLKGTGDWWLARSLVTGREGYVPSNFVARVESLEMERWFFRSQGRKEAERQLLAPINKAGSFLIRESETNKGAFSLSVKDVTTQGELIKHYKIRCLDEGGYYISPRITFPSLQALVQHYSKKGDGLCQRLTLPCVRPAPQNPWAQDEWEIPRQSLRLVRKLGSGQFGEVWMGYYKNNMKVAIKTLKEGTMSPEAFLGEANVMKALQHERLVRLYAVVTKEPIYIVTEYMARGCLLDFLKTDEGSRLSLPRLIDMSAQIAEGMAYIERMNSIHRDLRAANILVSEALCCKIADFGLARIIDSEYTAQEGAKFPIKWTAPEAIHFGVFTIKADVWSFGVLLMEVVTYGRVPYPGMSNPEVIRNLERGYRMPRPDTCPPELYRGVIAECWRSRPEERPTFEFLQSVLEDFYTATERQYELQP

## C=CC(=O)N1CCCC[C@H]1c1nc(-c2ccc(C(=O)Nc3cc(C(F)(F)F)ccn3)cc2)c(C(N)=O)n1N
TMD8 [1]
  Activity: 2.37%
Cytochrome P450 3A4 [2]
  IC50: > 10 µM
[3]
  Activity: Non-Toxic
[4]
  Cmax: 1000 ng/mL
TMD8 [5]
  Activity: 19.2%
TMD8 [6]
  inhibition in vivo at 3.75 mg/kg: 81%
TMD8 [7]
  inhibition in vivo at 7.5 mg/kg: 96%
TMD8 [8]
  Activity: 7.94%
[9]
  AUC at 24 h: 6360 ng·h/mL
[10]
  Occ: 95%
TMD8 [11]
  Activity: 37.86%
[12]
  inhibition (INH): Not Active
[13]
  Occ: 95%
Raji
  IC50: 4.3 µM
[14]
  Vd: 1.5 L/kg
TMD8 [15]
  Activity: 68.4%
[16]
  Activity: Non-Toxic
TMD8 [17]
  Activity: 3.79%
Ramos
  IC50: 2.5 µM
TMD8 [18]
  inhibition in vivo at 15 mg/kg: 106%
[19]
  inhibition: > 80%
[20]
  half-life: 1.32 h
[21]
  IC50: 0.17 µM
Cytochrome P450 1A2
  IC50: > 10 µM
TMD8 [22]
  Activity: 10.95%
TMD8 [23]
  Activity: 34.1%
TMD8 [24]
  Activity: 4.69%
[25]
  IC50: > 10 µM
[26]
  inhibition: Active
[27]
  Cmax: 2380 nM
Cytochrome P450 3A4 [28]
  IC50: > 10 µM
[29]
  IC50: 0.0157 µM
Pfeiffer
  IC50: 2.5 µM
NAMALVA
  IC50: 4.1 µM
[30]
  inhibition (INH): Not Active
[31]
  concentration at 2 h: 640 nM
[32]
  half-life: 1.35 h
[33]
  Cmax: 501 ng/mL
[34]
  inhibition (INH): Not Active

Source: ChEMBL document CHEMBL4840351 (J Med Chem, 2021)
